Structures can show the parent of a compound that is named as a salt.
Assays:
[1] = system: Platelet aggregation in dog PRP; experiment: In-Vitro Platelet Aggregation in PRP (ADP induced); assay type: cell-based; conditions: Canis lupus familiaris; for IC50: ADP 50 μm, 37° C.; for inhibition at 10 µM: ADP, test concentration 1 × 10^-5
Protocol: In-Vitro Platelet Aggregation in PRP
(§1) Healthy male or female dogs were fasted for 8 hours prior to drawing blood; then 30 ml whole blood was collected using a butterfly needle and 30 cc plastic syringe with 3 ml of 0.129M buffered sodium citrate (3.8%). The syringe was rotated carefully as blood was drawn to mix the citrate. Platelet-rich plasma (PRP) was prepared by centrifugation at 975×g for 3.17 minutes at room temperature, allowing the centrifuge to coast to a stop without braking. The PRP was removed from the blood with a plastic pipette and placed in a plastic capped, 50 ml Corning conical sterile centrifuge tube which was held at room temperature. Platelet poor plasma (PPP) was prepared by centrifuging the remaining blood at 2000×g for 15 minutes at room temperature allowing the centrifuge to coast to a stop without braking. The PRP was adjusted with PPP to a count of 2-3×10^8 platelets per ml. 400 for 5-(p-cyanophenyl)pentanoic acid in Section C of Example 1.
as §1, with “400 μl of the PRP preparation and 50 μl of the compound to be tested or saline were preincubated” for “400”, “1 minute at 37° C.” for “5-(p-cyanophenyl)pentanoic acid”, “a BioData aggregometer (BioData, Horsham, Pa.). 50 μl” for “Section C”, “adenosine 5'diphosphate (ADP) (50 μm final concentration) was added to the cuvettes and the aggregation was monitored for 1 minute. All compounds are tested in duplicate. Results are calculated as follows:” for “Example 1.”
Percent of control=[(maximal OD minus initial OD of compound) divided by
(maximal OD minus initial OD of control saline)]×100. The %
inhibition=100-(percent of control).

[2] = target: T1, fibrinogen binding to platelets (gpIIb/IIIa) (Homo sapiens, UniProt P05106+P08514); experiment: Fibrinogen Binding Assay (125I-fibrinogen binding to ADP-activated platelets); conditions: ADP 10 μM, 125I-fibrinogen 0.3 μM, 40 min at 37° C., read-out: Human Fg binding IC50
T1 construct: endogenous in cells
T1 sequence (P08514 32-887 limits assumed): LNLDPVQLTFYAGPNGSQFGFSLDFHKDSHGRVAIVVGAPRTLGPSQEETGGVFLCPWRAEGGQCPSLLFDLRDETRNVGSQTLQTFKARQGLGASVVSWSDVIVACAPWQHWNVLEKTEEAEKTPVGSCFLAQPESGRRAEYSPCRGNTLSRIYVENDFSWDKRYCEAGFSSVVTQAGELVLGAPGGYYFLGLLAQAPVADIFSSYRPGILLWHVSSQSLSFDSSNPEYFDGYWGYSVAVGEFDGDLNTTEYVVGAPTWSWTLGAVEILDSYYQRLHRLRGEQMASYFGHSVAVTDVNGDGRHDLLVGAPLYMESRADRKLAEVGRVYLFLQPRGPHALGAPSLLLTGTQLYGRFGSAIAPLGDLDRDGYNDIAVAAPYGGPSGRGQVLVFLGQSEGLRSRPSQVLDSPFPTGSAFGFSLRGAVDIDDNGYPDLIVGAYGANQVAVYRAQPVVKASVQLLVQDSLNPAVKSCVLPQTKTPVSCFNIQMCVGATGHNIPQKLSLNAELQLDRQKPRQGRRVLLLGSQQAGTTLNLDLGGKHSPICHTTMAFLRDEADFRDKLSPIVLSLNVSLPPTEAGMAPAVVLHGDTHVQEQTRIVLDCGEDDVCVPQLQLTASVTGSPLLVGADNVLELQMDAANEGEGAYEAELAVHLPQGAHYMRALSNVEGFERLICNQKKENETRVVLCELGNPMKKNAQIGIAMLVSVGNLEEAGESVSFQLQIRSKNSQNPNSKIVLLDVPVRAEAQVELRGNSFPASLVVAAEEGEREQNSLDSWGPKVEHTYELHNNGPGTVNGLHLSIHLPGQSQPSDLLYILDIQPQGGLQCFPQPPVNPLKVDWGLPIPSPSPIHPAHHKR
T1 sequence (P08514 891-1039 partner limits assumed): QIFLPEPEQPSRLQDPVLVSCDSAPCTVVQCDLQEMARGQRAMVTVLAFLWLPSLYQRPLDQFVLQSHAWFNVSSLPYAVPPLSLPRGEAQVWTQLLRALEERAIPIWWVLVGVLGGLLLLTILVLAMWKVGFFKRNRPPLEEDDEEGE
T1 sequence (P05106 27-788): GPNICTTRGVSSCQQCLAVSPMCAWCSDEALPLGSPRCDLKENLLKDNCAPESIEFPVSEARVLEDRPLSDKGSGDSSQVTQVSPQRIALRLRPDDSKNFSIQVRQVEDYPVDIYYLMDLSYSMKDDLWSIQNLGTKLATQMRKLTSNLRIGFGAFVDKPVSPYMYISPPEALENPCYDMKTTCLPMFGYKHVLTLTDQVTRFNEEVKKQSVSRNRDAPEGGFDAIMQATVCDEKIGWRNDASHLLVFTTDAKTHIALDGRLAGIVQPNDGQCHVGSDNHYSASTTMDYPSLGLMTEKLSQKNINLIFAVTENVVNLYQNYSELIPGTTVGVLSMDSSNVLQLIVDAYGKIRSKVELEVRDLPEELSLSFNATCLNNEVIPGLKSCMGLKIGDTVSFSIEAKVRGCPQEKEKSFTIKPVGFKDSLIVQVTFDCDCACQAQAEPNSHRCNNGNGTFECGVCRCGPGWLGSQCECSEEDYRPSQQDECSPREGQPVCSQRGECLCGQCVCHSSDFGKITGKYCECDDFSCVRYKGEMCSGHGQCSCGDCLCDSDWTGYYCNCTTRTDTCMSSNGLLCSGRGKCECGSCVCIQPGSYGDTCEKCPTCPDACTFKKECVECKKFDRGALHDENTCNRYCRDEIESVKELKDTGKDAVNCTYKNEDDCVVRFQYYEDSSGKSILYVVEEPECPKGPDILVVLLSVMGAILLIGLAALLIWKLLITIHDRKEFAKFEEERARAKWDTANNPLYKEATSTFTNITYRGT
Protocol: Fibrinogen binding was performed essentially as described by Plow et al., Blood 70, 110-115 (1987). Briefly, blood from humans who had not been given any antiplatelet drugs in the previous two weeks was collected into 1/10th volume of CCD buffer (100 mM sodium citrates, 136 mM glucose, pH 6.5). The blood was centrifuged for 3 min at 1000×g and platelet rich plasma was transferred to a plastic tube with a plastic pipet and placed on ice. After 15 minutes, 1/2 volume of ice cold CCD buffer was added and the sample was centrifuged at 900×g for 10 min at 2° C. The supernatant was decanted and the platelet pellet was gently resuspended in 1/2 the original volume of ice cold modified Tyrode's buffer (137 mM NaCl, 2.6 mM KCl, 12 mM NaHCO3, 5.5 mM glucose, 15 mM HEPES, 0.5% BSA, pH 7.4). After incubating for 30 minutes at 37° C., the platelet count was adjusted to 4×10^8 platelets/ml with modified Tyrode's buffer. To test samples (final concentration=1×10^8 platelets/ml) were added in sequence: ADP (10 μM), CaCl2 (2 mM), test compound, and ^125 I-fibrinogen (0.3 μM) to the aforesaid final concentrations in a volume of 200 μl. The samples were incubated for 40 min at 37° C. and 50 μl aliquots were centrifuged at 8,000×g through a 20% sucrose solution (400 μl). The tubes were quick frozen and the tips containing the platelet pellet were cut and assayed for bound ^125 I-fibrinogen by gamma scintillation counting. Specific binding was determined in each test by subtracting from the total binding the amount of ^125 I-fibrinogen bound in the presence of a 60-fold excess of unlabeled fibrinogen.

[3] = system: ex vivo collagen induced platelet aggregation; experiment: Inhibition of ex vivo collagen induced aggregation; assay type: in vivo, dog (Beagle); conditions: dog, IV
Protocol: INHIBITION OF EX VIVO COLLAGEN INDUCED AGGREGATION BY COMPOUNDS OF THE INVENTION
PURPOSE--The purpose of this assay is to determine the effects of antiplatelet compounds on ex vivo collagen induced platelet aggregation when administered either intravenously or orally to dogs.
Pretreatment (control) blood samples are drawn from either conscious or anesthetized dogs (Beagles) and centrifuged to prepare platelet rich plasma (PRP). Aggregatory response to collagen is measured in an aggregometer and used as Control. Compounds are administered, either intragasterically (either by capsule or stomach tube or intravenously. Blood samples are drawn at predetermined intervals after compound administration, PRP prepared and aggregation to collagen determined. Compound inhibition of aggregation is determined by comparing the aggregation response after compound administration to the pretreatment response. The study is continued for a maximum of 24 hours or until the platelet aggregation returns to control levels. (If aggregation is still inhibited after 7 hours, a blood sample is drawn the following morning and tested.) Duration of activity is determined by the length of time platelet aggregation is inhibited after compound administration.

[4] = Canine intravenous infusion model; assay type: in vivo

| Structure (SMILES) | IC50 [1] | inhibition at 10 µM [1] | IC50 [2] | Ex-vivo collagen induced aggregation, Max % Inhibition ([3]; 0.005 mg/kg) | Ex-vivo collagen induced aggregation, Max % Inhibition ([3]; 0.01 mg/kg) | Ex-vivo collagen induced aggregation, Max % Inhibition ([3]; 0.1 mg/kg) | ED50 [4] | Ex-vivo collagen induced aggregation, Max % Inhibition ([3]; 0.003 mg/kg) | Ex-vivo collagen induced aggregation, Max % Inhibition ([3]; 0.006 mg/kg) |
| --- | --- | --- | --- | --- | --- | --- | --- | --- | --- |
| N=C(N)c1ccc(C#CCCC(=O)N[C@@H](CC(=O)O)C(=O)N[C@@H](Cc2ccccc2)C(=O)O)cc1 [N-[5-[4-(aminoiminomethyl)phenyl]-1-oxo-4-pentynyl]-N-L-α-aspartyl-L-phenylalanine] | 90 nM | 100% | 6 nM | 29% | 83% | 100% | – | – | – |
| N=C(N)c1ccc(CCCCC(=O)N[C@@H](CC(=O)O)C(=O)N[C@@H](Cc2ccccc2)C(=O)O)cc1 [N-[N-[5-[4-(aminoiminomethyl)phenyl]-1-oxopentyl]-L-α-aspartyl]-L-phenylalanine] | – | – | – | – | – | – | 0.32 µg/kg/min | – | – |
| N=C(N)c1ccc(CCCCC(=O)N[C@@H](CC(=O)O)C(=O)N[C@@H](Cc2ccccc2)C(=O)O)cc1 [N-[N-[5-[4-aminoiminomethyl)phenyl-1-oxopentyl]-L-α-aspartyl]-L-phenylalanine, acetate salt] | 53 nM | 100% | 8.3 nM | – | – | – | – | 31% | 84% |
| N=C(N)c1ccc(CCCCC(=O)N[C@@H](CC(=O)O)C(=O)NCCc2ccccc2)cc1 [3 S-[[5-[4-(aminoiminomethyl)phenyl]-1-oxopentyl]amino]-4-oxo-4-[(2-phenylethyl)amino]butanoic acid] | 1900 nM | 100% | 200 nM | – | – | – | – | – | – |

Source: patent publication US5481021A, “Phenyl amidines derivatives useful as platelet aggregation inhibitors” (G. D. Searle & Co., priority 1994, dated 1996)
